Experimental data reported in patent publication US9790253B2, “OSW-1 analogs and conjugates, and uses thereof” (priority 2011, dated 2017).
Like-named read-outs stand apart in the source and are kept apart here.

Assays:
P388 tumor cells = settings: single i.p. treatment of 0.01 mg/kg; cited from earlier work
[1] = tested on: glioblastoma and leukemia cells; settings: cited from earlier work
normal lymphocytes = settings: cited from earlier work
A549 cells = experiment: cells; type: cell-based, human; settings: A549 cells, 48 h; read-out: GI50 (nM) 48 h
Description: Methods are essentially as described above in the General Methods section in connection with assays using HCT-116 cells.

HCT-116 p21^−/− cells = experiment: cells; settings: HCT-116 p21-/-
Description: Cell viability assay. Cells were plated into 96-well plates in 75 μL of media. After 24 h, a time-zero plate was produced by adding 25 μL of media and 20 μL of CellTiter-Blue® (Promega) to the wells, followed by incubation at 37° C. for 90 min. Fluorescence (544 nm excitation; 590 nm emission) was detected using a SPECTRAmax® Gemini XS to establish cell viability at time of dosing. Then, compounds were serially diluted in media and delivered to the cells as 4× solutions in 25 μL of media. At either 48 h or 72 h, CellTiter-Blue® was added and the fluorescence was recorded as described above.
Tasdemir et al. (2002) J Nat Prod 65:210-4. GI50-values of the compounds were determined in HCT-116 p21^+/+ (wt) and p21^−/− cells after 48 h using a resazurin redox dye to measure cell viability.
Methods are described above in the General Methods section.

HL-60 = settings: cited from earlier work

In the case of `COc1ccc(C(=O)O[C@H]2[C@H](O[C@@H]3[C@@H](OC(C)=O)[C@H](O[C@H]4C[C@H]5[C@@H]6CC=C7C[C@@H](O)CC[C@]7(C)[C@H]6CC[C@]5(C)[C@@]4(O)[C@H](C)C(=O)CCC(C)C)OC[C@@H]3O)OC[C@@H](O)[C@@H]2O)cc1` [OSW-1], the increased life span (P388 tumor cells) is listed as 59%, the “fold more cytotoxic toward glioblastoma and leukemia cells than non-transformed astrocytes and lymphocytes” value [1] is listed as 30-150 fold and the GI50 (normal lymphocytes) is listed as 1730 pM. It also gave a GI50 (A549 cells) of 0.5 ± 0.24 nM, a GI50 (HCT-116 p21^−/− cells; read-out: GI50 (nM) 48 h p21^−/−, 48 h) of 0.2 ± 0.03 nM and a GI50 (HCT-116 p21^−/− cells; read-out: GI50 (nM) 72 h p21^−/−, 72 h) of 0.04 nM. The GI50 (HL-60) was 40 pM and the “times more active in leukemia cells versus normal lymphocytes” value (HL-60) was 40 times.
